{
  "source": "patent US10259753B2",
  "about": "“Multifunctional organic agricultural fertilizer composition and process for preparation thereof” (priority 2014, dated 2019)",
  "key": {"Pest worms": {"system": "Pest worms", "assay": "Control of pest worms on tomato by Cypermethrin 25% EC in well water treated with the composition", "format": "in vivo", "settings": "Cypermethrin 125 ml/acre with composition, control: 150 ml/acre in normal well water", "procedure": "The following compositions are used in the treatment for Tomato:\n(§1) Tomato crop infested with worms was sprayed with Cypermethrin 25% EC using normal well water and well water treated with the compositions of the invention. 4000 Sq. meter was treated only with water and another 8000 square meter plot was treated with composition of the invention as per Example No. 3 or 5. In both the plots, pest is controlled. In treated plot, the pest control is achieved at 95% and with 15% saving in the dosage of cypermethrin pesticide."}, "[1]": {"assay": "pH and color of cypermethrin spray water treated with the composition", "format": "physicochemical", "settings": "composition 2 Ltr per 8000 sq. meter; control: normal well water", "procedure": "as §1"}, "[2]": {"assay": "Urea volatilization: loss of soil-applied urea, from nitrogen content of soil samples", "settings": "50 Kg urea in soil; 1 ltr of composition where used", "procedure": "Experiment was carried out to check the effect of compositions of present invention to see the efficiency to prevent volatilization in urea.\nIt is noted that the pH of urea in soil in treatment T2 and T3 was adjusted to 4.5 to 5.0 due to addition of composition of invention.\nThe soil samples were collected from various selected locations wherever urea is applied and then checked for nitrogen content in laboratory after 0, 2, 4, 6, 8 and 10 days of urea application."}, "weeds": {"system": "weeds", "assay": "Control of weeds in cotton crop by glyphosate spray in water treated with the composition", "format": "in vivo", "settings": "Glyfosate 750 ml/acre with composition, control: 1 Ltr/acre with plain water", "procedure": "The cotton crop was treated with glyphosate at 1 Ltr per acre with plain water and Glyfosate used with the composition of Example 3 and 5 was used at 750 ml/acre.\n(§2) The water was treated with composition of example 3 and 5 as given in Table 15 at 2 to 3 ml per ltr of water till the pH of 4.5 and 4.2 is achieved as indicated by the color achieved to the water."}, "[3]": {"assay": "pH and color of glyphosate spray water treated with the composition", "format": "physicochemical", "settings": "water treated with composition at 2 to 3 ml per ltr; control: plain water", "procedure": "as §2"}},
  "data": [
    {"smiles": "CC1(C)C(C=C(Cl)Cl)C1C(=O)OC(C#N)c1cccc(Oc2ccccc2)c1", "note": "(centres unmarked) [Cypermethrin]", "values": [
      {"measurement": "Control of Pest worms", "setting": "Pest worms", "result": 78, "unit": "%"},
      {"measurement": "pH of Cypermethrin Spray solution", "setting": "[1]", "result": 7.20}
    ]},
    {"smiles": "NC(N)=O", "note": "[Plain Urea, Urea]", "values": [
      {"measurement": "pH achieved of urea in soil", "setting": "[2]", "result": "pH = 7.5"}
    ]},
    {"smiles": "O=C(O)CNCP(=O)(O)O", "note": "[Glyfosate, glyphosate]", "values": [
      {"measurement": "Control of weeds", "setting": "weeds", "result": 72, "unit": "%"},
      {"measurement": "pH of Glyfosate spray solution", "setting": "[3]", "result": 7.65}
    ]}
  ]
}
